Data from a melting point compilation (Tetko et al.; mined from patent text by program, amines drawn as free bases though some values may be those of a salt).

First: O=C(CCCCCCC1=CC(O)CC1=O)Oc1ccc(NC(=O)c2ccccc2)cc1 (configuration not stated)
Second: CC(=O)c1cccc(NC(=O)c2ccc3c(c2)CC(COCc2ccccc2)O3)c1O (configuration not stated)
The melting point of the first is higher: 168 to 169 °C for the first, 103 to 105 °C for the second.

Compared with `CC(=O)OI(OC(C)=O)c1ccc(-c2ccc(Cl)cc2)cc1`, `Cc1ccc(-c2nnc(S)nc2-c2ccc(C)cc2)cc1` is higher in melting point: 147 to 150 °C for the first, 220 to 223 °C for the second.

Compared with `O=c1ccc(S(=O)(=O)c2cc3cc(Cl)ccc3[nH]2)n[nH]1`, `O=c1c2cc(Cl)ccc2ccc2ncccc12` is lower in melting point: > 250 °C for the first, 140 to 142 °C for the second.

Compared with `CCN(CC)Cc1ccc(-c2ccc3c(Nc4cc(OC)c(Cl)cc4Cl)c(C#N)cnc3c2)cc1`, `CN(Cc1ccc(-c2ccc(OCc3nnn[nH]3)c(Br)c2)cc1)C(=O)c1cn(C)c2ccccc12` is higher in melting point: 191 to 195 °C for the first, 239 °C for the second.

First: Cc1cc(O)nc(N(C)C#N)n1
Second: Cc1cc2c(C)nc(N)nc2o1
The melting point of the first is higher: 290 °C for the first, 263 to 265 °C for the second.

Compared with `CCOC(=O)C1=C(N)NC2=C(C(=O)CCC2)C1c1cccc2ccccc12` (configuration not stated), `CCOC(=O)NCC(O)c1cccc2c1CCN2C(=O)c1ccccc1` (configuration not stated) is lower in melting point: 279 °C for the first, 143 °C for the second.

`Nc1nc(N)c(CCCNc2ccc(C(=O)N[C@@H](CCC(=O)O)C(=O)O)c(Cl)c2)c(=O)[nH]1` and `O=C(O)CC(CSc1nc2ccccc2[nH]1)C(=O)O` (configuration not stated) cannot be ordered by melting point: 150 to 178 °C for the first, 165 to 168 °C for the second.

Compared with `CCOC(=O)C1CCc2c1sc(C)c2C(=O)c1ccc(SC)cc1` (configuration not stated), `CCOC(=O)N(N=c1[nH]c(SC)nc2ccc(C)cc12)c1ccccc1` is higher in melting point: 62 to 64 °C for the first, 230 °C for the second.

First: Cc1c(-c2ccccc2)sc2nc(N3CCOCC3)[nH]c(=O)c12
Second: Cc1nc(-c2ccsc2)c2nc(-c3ccccc3)cc-2[nH]1
The melting point of the first is higher: 300 to 320 °C for the first, 232 to 233 °C for the second.

First: O=C(Cc1ccc(F)cc1)c1ccc(OC(F)F)cc1
Second: O=C(O)Cc1c(C(=O)c2ccc(Cl)cc2)[nH]c2ccc(OC(F)(F)F)cc12
The melting point of the first is lower: 50 to 56 °C for the first, 195 °C for the second.

First: CCCCCCCCCCCCN1C(=O)C=CC1=O
Second: CCCCCCCCCCCCCCCCNc1ccc(C(=O)NS(=O)(=O)c2ccc([N+](=O)[O-])cc2)cc1
The melting point of the first is lower: 56 °C for the first, 130 to 131 °C for the second.

First: O=C1CCC(N2C(=O)c3cccc(NC(=O)c4cccc(Cl)c4)c3C2=O)C(=O)N1 (configuration not stated)
Second: CC(C)NC(=O)Nc1c(C(=O)c2ccccc2)[nH]c2cc(Cl)ccc12
The melting point of the first is lower: 257 to 259 °C for the first, 265 to 266 °C for the second.

First: O=S(=O)(NCCCCOc1ccc(-n2ccnc2)cc1)c1ccc2ccccc2c1
Second: COc1ccc(S(=O)(=O)C(C)(Cc2ccc(-c3ccccc3)cc2)C(=O)NO)cc1 (configuration not stated)
The melting point of the first is lower: 157 to 158 °C for the first, 177 °C for the second.

Compared with `COc1ccc(-c2nc(C(F)F)oc2-c2ccc(OCCO)cc2)cc1`, `CCc1noc(-c2ccccc2)c1-c1ccc(S(N)(=O)=O)cc1` is higher in melting point: 114 to 116 °C for the first, 167 °C for the second.

Compared with `CCCc1ccc(NC(=O)c2cccnc2NCc2ccc(OC)nc2)cc1C(F)(F)F`, `COc1ccc(CNc2nc(OCc3ccccn3)ncc2C(N)=O)cc1Cl` is higher in melting point: 51 to 61 °C for the first, 208 to 209 °C for the second.

First: CNC(=O)CC1CN=C(c2cc3cc(Oc4ccc(S(C)(=O)=O)nc4)cc(OC(COC)COC)c3[nH]2)S1 (configuration not stated)
Second: COc1ccnc(CSc2nc3c(OC(F)F)c(OC)c(OC)cc3[nH]2)c1
The melting point of the first is higher: 149 to 151 °C for the first, 112 to 114 °C for the second.

Compared with `O=C(CSc1ccccc1)c1ccc2[nH]c3nc(Cl)ccc3c2c1`, `OCc1ccc(-c2nn(Cc3ccccc3)c3ccccc23)o1` is lower in melting point: 256 °C for the first, 108 to 109 °C for the second.

First: O=C(N[C@H](Cc1ccc(C(F)(F)F)cc1)[C@@H](O)c1ccoc1)c1ccc(F)c2ccccc12 (racemic)
Second: O=C1N[C@H](Cc2ccc(C(F)(F)F)cc2)[C@H](c2ccoc2)O1 (racemic)
The melting point of the first is higher: 206 to 207 °C for the first, 111 to 112 °C for the second.

Compared with `CCCCCC(=O)OCC(CCn1cnc2c(=O)[nH]c(N)nc21)COC(=O)CCCCC`, `O=c1[nH]c(=O)n(CCCCBr)c2ncccc12` is lower in melting point: 198 °C for the first, 139 to 141 °C for the second.

Compared with `CC(=O)Nc1cc(O)c(C(=O)O)cc1NC(=N)N`, `COc1cc(NC(=O)CC(C)=O)c(OC)cc1Cl` is lower in melting point: 334 to 357 °C for the first, 105 to 106 °C for the second.

Compared with `O=[N+]([O-])c1ccc2[nH]cc(C3=CCC4(CC3)OCCO4)c2c1`, `CN(C)C1(c2ccccc2)CCC2(CC1)NCCc1c2[nH]c2ccc(-c3ccncc3)cc12` (configuration not stated) is higher in melting point: 175 to 177 °C for the first, 190 to 197 °C for the second.

First: Brc1ccccc1OCc1ccc2ccccc2n1
Second: O=c1cc(-c2ccccc2)n(-c2ccccc2Cl)c(-c2ccccc2)c1Cl
The melting point of the first is lower: 115 to 117 °C for the first, 230 to 233 °C for the second.

First: C=COC(=O)N1C[C@@H]2C(=O)CCC(c3cccc(F)c3)(c3cccc(F)c3)[C@@H]2C1 (racemic)
Second: NS(=O)(=O)c1cc(C(=O)O)cc(N2CCCC2=O)c1Oc1ccccc1
The melting point of the first is lower: 152 °C for the first, 282 to 285 °C for the second.

Compared with `CC1CCc2c(N3CCN(S(=O)(=O)C(F)(F)F)CC3)c(Cl)cc3c(=O)c(C(=O)O)cn1c23` (configuration not stated), `COc1c(N2CCC(N)C2)c(F)cc2c(=O)c(C(=O)O)cn(C3CC3)c12` (configuration not stated) is lower in melting point: 232 to 235 °C for the first, 208 to 212 °C for the second.

First: C=CCNC(=O)NC(=O)c1c(Cl)cccc1[Si](C)(C)C
Second: Cc1cc(NC(=O)NC(=O)c2c(Cl)cccc2Cl)cnc1-c1ccccc1
The melting point of the first is lower: 68 to 71 °C for the first, 202 to 205 °C for the second.

Compared with `CN(C)CCNC(=O)[C@H]1C[C@H](NC(=O)Cc2ccccc2)c2c(Cl)cc(Cl)cc2N1` (relative stereo), `CO[C@H]1C(=O)N(S(C)(=O)=O)[C@H]2CCN(C(=O)OCc3ccccc3)[C@H]12` (relative stereo) is lower in melting point: 158 to 159 °C for the first, 146 to 149 °C for the second.

Compared with `CS(=O)(=O)N(c1ccc(C#Cc2cnn3c(C(F)(F)F)cc(-c4ccc(C(F)(F)F)cc4)nc23)cn1)S(C)(=O)=O`, `FC(F)(F)c1ccc(C2=NNCC2c2ccccc2)cc1` (configuration not stated) is lower in melting point: 250 to 251 °C for the first, 98 to 112 °C for the second.

Compared with `COc1cc2nc(SCc3nccc(N(C)C)c3Cl)[nH]c2cc1OC`, `Cc1cccc2[nH]c(Cl)nc12` is higher in melting point: 121 to 122 °C for the first, 138 to 140 °C for the second.

First: Fc1cc(Cl)c2ccc(Cl)cc2n1
Second: COc1ccc(C(=O)Nc2c(Cl)cncc2Cl)cc1O
The melting point of the first is lower: 105 to 106 °C for the first, 227 to 228 °C for the second.

First: Cc1c(C(=O)Nc2ncc(CO)s2)nnn1Cc1ccc(Cl)c(Cl)c1
Second: Cc1nccn1CCCNC(=O)c1cc2ccccc2[nH]1
The melting point of the first is lower: 170 °C for the first, 235 to 237 °C for the second.

First: COc1ccc(Cc2oc3c(c2C)C(=O)C(C)=C(C)C3=O)cc1
Second: Cc1ccc(S(=O)(=O)OCCc2c(C)nc3cc(C)ccn3c2=O)cc1
The melting point of the first is lower: 111 to 113 °C for the first, 128 °C for the second.

Compared with `N#Cc1nc(-c2ccccc2)c[nH]1`, `CN(C)C1CCc2[nH]c3ccccc3c2C1` (configuration not stated) is lower in melting point: 151 to 153 °C for the first, 138 °C for the second.

First: CC(C)(CO)c1ccc(C(=O)Nc2cn3cc(-c4ccsc4)ccc3n2)cc1
Second: CCCC(=O)c1cnc2cc(COC(=O)c3ccccc3)ccc2c1Nc1ccccc1C
The melting point of the first is higher: 250 to 252 °C for the first, 110 to 112 °C for the second.

First: Nc1cccc(-n2c(=O)c3c(CCc4ccncc4)n[nH]c3c3cccnc32)c1
Second: Cc1cccc(-c2cnn(-c3ccnc(-c4ccc(CN5CCOCC5)cc4)c3)c2)n1
The melting point of the first is higher: 261 to 263 °C for the first, 128 °C for the second.

Compared with `COCOc1cccc(NC(=O)OC(C)(C)C)c1I`, `CC(C)(C)OC(=O)Nc1cc(OCC2COC(=O)O2)c(C#Cc2ccccc2)cc1N` (racemic) is higher in melting point: 82 to 84 °C for the first, 140 °C for the second.

First: CC(C)(CSc1ccc(Cl)cc1)C(O)Cn1ccnc1 (configuration not stated)
Second: CC(C(=O)O)c1ccc(-n2cc(Cl)cn2)cc1 (configuration not stated)
The melting point of the first is lower: 109 to 110 °C for the first, 152 to 153 °C for the second.

First: COc1ccc(C(=NO)c2ccccc2F)c(O)c1Cl
Second: COc1ccc2c(c1)C(c1ccccc1Cl)C(=O)N2 (configuration not stated)
The melting point of the first is higher: 184 to 186 °C for the first, 179 °C for the second.

First: Oc1ccc(CCNc2ncnc3nccnc23)cc1
Second: Fc1ccc(-c2ccn(C3CCNC3)c2-c2ccncc2)cc1 (configuration not stated)
The melting point of the first is higher: > 210 °C for the first, 145 to 147 °C for the second.

Compared with `CC(C)(C)OCOc1cc(NC(=O)NC(=O)c2ccc(C#N)cc2)ccc1OCC(=O)OC(C)(C)C`, `COc1ccc(C(=O)Nc2ccc(F)c(F)c2)cc1NS(=O)(=O)c1ccc([N+](=O)[O-])cc1` is higher in melting point: 161 to 162 °C for the first, 234 to 236 °C for the second.

`CN1CCN(c2cc3c(cc2C(F)(F)F)[nH]c(=O)c2n[nH]c(=O)n23)CC1` and `O=C(O)c1ccc(N2CCN(c3ccncc3)CC2)cc1` cannot be ordered by melting point: > 300 °C for the first, > 300 °C for the second.

First: O=C(c1ccccc1)N(CC(=O)N1c2ccccc2N(Cc2ccccc2)C(=O)[C@H]2CCC[C@H]21)Cc1ccccc1 (relative stereo)
Second: O=C1c2ccccc2C(=O)N1CC(=O)N1c2ccccc2N(CCCc2ccccc2)C(=O)[C@H]2CCC[C@H]21 (relative stereo)
The melting point of the first is lower: 166 to 168 °C for the first, 192 to 193 °C for the second.

First: CCOC1(OCC)CCc2c(ccc3c(=O)c4cc(C(=O)O)ccc4oc23)O1
Second: Cc1cc(Cl)ccc1N=CNN=C(c1ccc(Cl)cc1)c1ccc(OS(C)(=O)=O)cc1
The melting point of the first is higher: 191 to 193 °C for the first, 60 to 100 °C for the second.

First: COc1nc(NC(=O)NS(=O)(=O)Oc2ccccc2-c2ccon2)nc(OC)n1
Second: COc1ccccc1-c1cn([C@H]2CN3CCC2CC3)nn1
The melting point of the first is higher: 166 to 168 °C for the first, 120 °C for the second.

First: C#CCCCOc1c(C)cc(-c2nc(C)no2)cc1C
Second: CN1C(=O)C(C)(C)Oc2c(C(=O)O)cc(Cl)cc21
The melting point of the first is lower: 38 to 40 °C for the first, 235 to 236 °C for the second.

First: CC(=O)OC(C)c1cc2c(s1)C(=O)c1c(C(C)OC(C)=O)csc1C2=O (configuration not stated)
Second: O=C(O)Cn1cc(Cl)cnc1=O
The melting point of the first is lower: 180 to 182 °C for the first, 186 to 188 °C for the second.

Compared with `COC(=O)C(Cc1ccc(OCc2nc3ccc(Oc4ccc(C56CC7CC(CC(C7)C5)C6)cc4)cc3n2C)cc1)OCc1ccc(F)cc1` (configuration not stated), `O=C(O)c1cc(OCc2ccccc2)c(C(=O)c2c(OCc3ccccc3)cccc2C(=O)OCc2ccccc2)c(OCc2ccccc2)c1` is higher in melting point: 118 to 120 °C for the first, 151 to 156 °C for the second.

Compared with `CN(C)c1ccc(F)c(C#N)c1`, `CCOC(=O)C(C1c2ccccc2Sc2ccccc21)[N+](=O)[O-]` (configuration not stated) is higher in melting point: 72 to 72.5 °C for the first, 111 to 115 °C for the second.

First: CCCCOC(=O)N1CCSCC1
Second: O=C(c1ccc2nc(C3CC3)n(Cc3ccccc3Cl)c2c1)C1CNCCO1 (configuration not stated)
The melting point of the first is lower: 72.9 to 78.9 °C for the first, 193 to 195 °C for the second.

For `CC12CCC(O)CC1=CCC1C2CCC2(C)C(=C(F)CO)CCC12` (configuration not stated), the melting point was 198 to 203 °C.
